Measurements taken from patent US20240277800A1, “PHARMACEUTICAL COMPOSITION COMPRISING MACROCOSINE COMPOUND AND METHOD FOR PREPARING MACROCOSINE COMPOUND” (priority 2021, published 2024).
Converted amounts (≈) assume the structure as drawn. Like-named read-outs stand apart in the source and are kept apart here.

Assays:
C. difficile = assay: Antibacterial activity against Clostridium difficile, agar medium dilution MIC (CLSI); type: cell-based; conditions: Clostridioides difficile
[1] = tested on: Mycobacterium intracellulare ATCC 13950; assay: Antibacterial activity against nontuberculous mycobacteria, resazurin MIC50; type: cell-based; conditions: ATCC13950
[2] = tested on: Mycobacterium avium ATCC 700898; assay: as above; type: cell-based; conditions: ATCC700898
Il-1B = assay: Anti-inflammatory efficacy: IL-1B secretion in LPS-treated RAW 264.7 cells (ELISA); type: cell-based, mouse; conditions: RAW 264.7 cells, 5, 10, 20, 40 ug/mL plus 1 ug/ml LPS, 24 hours, versus LPS only
Protocol: (§1) In order to confirm the anti-inflammatory effect of the micrococcin compound (Compound 13; Micrococcin P2) prepared in Example 1 of the present invention, an inflammatory cytokine secretion amount was measured.
(§2) RAW 264.7 cells which are mouse-derived macrophage cell lines were distributed from Korean Cell Line Bank (KCLB), and a DMEM (Dulbeccon's modified Eagle's medium; PAA, Austria) medium including 1% Penicillin-Streptomycin and 10% FBS (fetal bovine serum; Gibco Laboratories) was used. Cells were cultured under the conditions of 37° C. and 5% CO2.
(§3) The cultured RAW 264.7 cells were dispensed at 2x10^5 cells/well in a 24-well plate, the micrococcin compound (Compound 13; Micrococcin P2) prepared in Example 1 was treated by concentrations (5, 10, 20, 40 ug/mL) and then treated 1 ug/ml of lipopolysaccharide (LPS), and culture was performed in an incubator (5% CO2, 37° C.) for 24 hours.
(§4) A control group was a cell group which was not treated, and as a negative control group, a cell group treated with only LPS was used.
(§5) After completion of culture, a medium of each well was collected (at 4° C., 12,000 rpm for 10 minutes) and centrifuged, a supernatant was taken, and the concentration of inflammatory cytokine (IL-6, Il-1B) in the medium was quantified using an ELISA kit (R&D system, BD).

M. tuberculosis = assay: Antibacterial activity against tuberculosis bacteria, resazurin (REMA) MIC50; type: cell-based; conditions: Mycobacterium tuberculosis, read-out: MIC50
IL-6 = assay: Anti-inflammatory efficacy: IL-6 secretion in LPS-treated RAW 264.7 cells (ELISA); type: cell-based, mouse; conditions: RAW 264.7 cells, 5, 10, 20, 40 ug/mL plus 1 ug/ml LPS, 24 hours, versus LPS only
Protocol: as §1, §2, §3, §4, §5

[3] = tested on: C. difficile Ribotype 027; assay: Efficacy in Clostridium difficile-infected mouse model (survival); type: in vivo; conditions: C57BL/6J mouse, 30 mg/kg orally once a day for 5 days
[4] = tested on: Mycobacterium abscessus ATCC 19977; assay: Antibacterial activity against nontuberculous mycobacteria, resazurin MIC50; type: cell-based; conditions: Mycobacteroides abscessus, ATCC19977
[5] = ATCC9689, C. difficile ATCC 9689, read-out: MIC
[6] = ATCC17858, C. difficile ATCC 17858, read-out: MIC
[7] = ATCC43255, C. difficile ATCC 43255, read-out: MIC
[8] = ATCC51695, C. difficile ATCC 51695, read-out: MIC
[9] = ATCCBAA1871, C. difficile ATCC BAA-1871, read-out: MIC
[10] = C. difficile Clinical isolate #1, read-out: MIC
[11] = C. difficile Clinical isolate #2, read-out: MIC
[12] = Mycobacterium intracellulare ATCC 13950, read-out: MIC50
[13] = Mycobacterium avium ATCC 700898, read-out: MIC50

Structure (SMILES) | MIC (C. difficile; [5]) [µg/mL] | MIC (C. difficile; [6]) [µg/mL] | MIC (C. difficile; [7]) [µg/mL] | MIC (C. difficile; [8]) [µg/mL] | MIC (C. difficile; [9]) [µg/mL] | MIC (C. difficile; [10]) [µg/mL] | MIC (C. difficile; [11]) [µg/mL] | MIC50 [1, 12] [µM] | MIC50 [2, 13] [µM] | further results
Cc1ncc([N+](=O)[O-])n1CCO [MDZ, Metronidazole] | 1 (≈ 5.84 µM) | 1 (≈ 5.84 µM) | 2 (≈ 11.7 µM) | 2 (≈ 11.7 µM) | 2 (≈ 11.7 µM) | 1 (≈ 5.84 µM) | 2 (≈ 11.7 µM) | – | – | –
CC[C@H]1OC(=O)[C@H](C)[C@@H](O[C@H]2C[C@@](C)(OC)[C@@H](O)[C@H](C)O2)[C@H](C)[C@@H](O[C@@H]2O[C@H](C)C[C@H](N(C)C)[C@H]2O)[C@](C)(OC)C[C@@H](C)C(=O)[C@H](C)[C@@H](O)[C@]1(C)O [CLR, Clarithromycin] | – | – | – | – | – | – | – | 0.143 (≈ 0.107 µg/mL) | 0.076 (≈ 0.0568 µg/mL) | –
CN[C@H](CC(C)C)C(=O)N[C@H]1C(=O)N[C@@H](CC(N)=O)C(=O)N[C@H]2C(=O)N[C@H]3C(=O)N[C@H](C(=O)N[C@H](C(=O)O)c4cc(O)cc(O)c4-c4cc3ccc4O)[C@H](O)c3ccc(c(Cl)c3)Oc3cc2cc(c3O[C@@H]2O[C@H](CO)[C@@H](O)[C@H](O)[C@H]2O[C@H]2C[C@](C)(N)[C@H](O)[C@H](C)O2)Oc2ccc(cc2Cl)[C@H]1O [VAN, Vancomycin] | 2 (≈ 1.38 µM) | 1 (≈ 0.69 µM) | 1 (≈ 0.69 µM) | 2 (≈ 1.38 µM) | 1 (≈ 0.69 µM) | 4 (≈ 2.76 µM) | 1 (≈ 0.69 µM) | – | – | –
CO[C@H]1/C=C/O[C@@]2(C)Oc3c(C)c(O)c4c(O)c(c(/C=N/N5CCN(C)CC5)c(O)c4c3C2=O)NC(=O)/C(C)=C\C=C\[C@H](C)[C@H](O)[C@@H](C)[C@@H](O)[C@@H](C)[C@H](OC(C)=O)[C@@H]1C [RIF, Rifampicin] | – | – | – | – | – | – | – | 0.38 (≈ 0.313 µg/mL) | 6.6 (≈ 5.43 µg/mL) | –
C/C=C(\NC(=O)c1csc(-c2csc(-c3ccc4c(n3)-c3csc(n3)[C@H]([C@@H](C)O)NC(=O)c3csc(n3)[C@H](C(C)C)NC(=O)c3csc(n3)/C(=C/C)NC(=O)[C@H]([C@@H](C)O)NC(=O)c3csc-4n3)n2)n1)C(=O)NCC(C)=O [Micrococcin P2] | 0.5 (≈ 0.438 µM) | 1 (≈ 0.875 µM) | 2 (≈ 1.75 µM) | – | 1 (≈ 0.875 µM) | 1 (≈ 0.875 µM) | 1 (≈ 0.875 µM) | – | – | MIC (C. difficile; ATCC51695): 1 µg/mL (≈ 0.875 µM); secretion amount of IL-1B (Il-1B): significantly decreased; MIC50 ([1]; Mycobacterium intracellulare): 0.033 µM (≈ 0.0377 µg/mL); MIC50 ([2]; Mycobacterium avium): 0.028 µM (≈ 0.032 µg/mL); MIC50 (M. tuberculosis; H37RV, M. tuberculosis H37Rv): 0.089 µM (≈ 0.102 µg/mL); MIC50 (M. tuberculosis; Pan-susceptible isolate #2 (Pan-S2)): 0.199 µM (≈ 0.227 µg/mL); MIC50 (M. tuberculosis; Pan-susceptible isolate #4 (Pan-S4)): 0.356 µM (≈ 0.407 µg/mL); MIC50 (M. tuberculosis; Pan-susceptible isolate #6 (Pan-S6)): 0.354 µM (≈ 0.404 µg/mL); MIC50 (M. tuberculosis; Pan-susceptible isolate #7 (Pan-S7)): 0.208 µM (≈ 0.238 µg/mL); secretion amount of IL-6 (IL-6): significantly decreased; death by C. difficile recurrence after drug administration ([3]; followed about 2 weeks): no death individual occurred by C. difficile recurrence; survival rate ([3]; survival followed about 2 weeks): 100%; MIC50 [4]: 0.654 µM (≈ 0.747 µg/mL)
COc1c(N2C[C@@H]3CCCN[C@@H]3C2)c(F)cc2c(=O)c(C(=O)O)cn(C3CC3)c12 [MXF, Moxifloxacin] | 1 (≈ 2.49 µM) | 2 (≈ 4.98 µM) | 2 (≈ 4.98 µM) | 2 (≈ 4.98 µM) | 32 (≈ 79.7 µM) | 32 (≈ 79.7 µM) | 2 (≈ 4.98 µM) | – | – | –
